Experimental data as given in ChEMBL document CHEMBL1153274, “Microwave-assisted synthesis of N-substituted cyclic imides and their evaluation for anticancer and anti-inflammatory activities” (2009).

Tests used:
Assay type in all cases: functional
[1] = test system: SW-620; test: Cytotoxicity against human SW620 cells after 48 hrs by SRB assay
[2] = test system: COLO 205; test: Cytotoxicity against human COLO205 cells after 48 hrs by SRB assay
[3] = test system: Rattus norvegicus; test: Antiinflammatory activity against carrageenan-induced paw edema in albino rat at 50 mg/kg, po administered 30 mins before carrageenan challenge measured after 1 to 3 hrs
[4] = test system: SK-N-SH; test: Cytotoxicity against human SK-N-SH cells after 48 hrs by SRB assay
[5] = test system: HEp-2; test: Cytotoxicity against human Hep2 cells after 48 hrs by SRB assay
[6] = test system: Rattus norvegicus; test: Antiinflammatory activity against carrageenan-induced paw edema in albino rat at 25 mg/kg, po administered 30 mins before carrageenan challenge measured after 1 to 3 hrs
[7] = test system: Rattus norvegicus; test: Antiinflammatory activity against carrageenan-induced paw edema in albino rat at 100 mg/kg, po administered 30 mins before carrageenan challenge measured after 1 to 3 hrs

## O=C1c2nc[nH]c2C(=O)N1CCN1CCCCC1
[1]
  growth inhibition (GI): 17%
[2]
  growth inhibition (GI): 10%
[3]
  Activity: 0%
[4]
  growth inhibition (GI): 22%
[5]
  growth inhibition (GI): 18%

## O=C1Cc2ccccc2CC(=O)N1Cc1ccco1
[1]
  growth inhibition (GI): 17%
[2]
  growth inhibition (GI): 10%
[3]
  Activity: 22%
[4]
  growth inhibition (GI): 11%
[5]
  growth inhibition (GI): 17%

## O=C1c2nc[nH]c2C(=O)N1Cc1ccccn1
[1]
  growth inhibition (GI): 33%
[2]
  growth inhibition (GI): 6%
[3]
  Activity: 24%
[4]
  growth inhibition (GI): 11%
[5]
  growth inhibition (GI): 17%

## O=C1c2nc[nH]c2C(=O)N1Cc1ccncc1
[1]
  growth inhibition (GI): 43%
[2]
  growth inhibition (GI): 3%
[3]
  Activity: 21%
[4]
  growth inhibition (GI): 1%
[5]
  growth inhibition (GI): 26%

## O=C1Cc2ccccc2CC(=O)N1Cc1ccccn1
[1]
  growth inhibition (GI): 37%
[2]
  growth inhibition (GI): 0%
[3]
  Activity: 32%
[4]
  growth inhibition (GI): 0%
[5]
  growth inhibition (GI): 11%

## O=C1Cc2ccccc2CC(=O)N1Cc1cccnc1
[1]
  growth inhibition (GI): 22%
[2]
  growth inhibition (GI): 0%
[3]
  Activity: 40%
[6]
  Activity: 19%
[4]
  growth inhibition (GI): 0%
[5]
  growth inhibition (GI): 6%
[7]
  Activity: 67%

## O=C1Cc2ccccc2CC(=O)N1Cc1cccs1
[1]
  growth inhibition (GI): 52%
[2]
  growth inhibition (GI): 4%
[3]
  Activity: 34%
[4]
  growth inhibition (GI): 1%
[5]
  growth inhibition (GI): 19%

## O=C1c2nccnc2C(=O)N1CCN1CCCCC1
[1]
  growth inhibition (GI): 9%
[2]
  growth inhibition (GI): 2%
[3]
  Activity: 16%
[4]
  growth inhibition (GI): 10%
[5]
  growth inhibition (GI): 12%

## O=C1Cc2ccccc2CC(=O)N1CCN1CCCCC1
[1]
  growth inhibition (GI): 45%
[2]
  growth inhibition (GI): 0%
[3]
  Activity: 21%
[4]
  growth inhibition (GI): 0%
[5]
  growth inhibition (GI): 15%

## O=C1c2nccnc2C(=O)N1Cc1ccccn1
[1]
  growth inhibition (GI): 33%
[2]
  growth inhibition (GI): 6%
[3]
  Activity: 29%
[4]
  growth inhibition (GI): 11%
[5]
  growth inhibition (GI): 16%

## O=C1c2ccncc2C(=O)N1CCN1CCCCC1
[1]
  growth inhibition (GI): 0%
[2]
  growth inhibition (GI): 1%
[3]
  Activity: 12%
[4]
  growth inhibition (GI): 13%
[5]
  growth inhibition (GI): 13%

## O=C1c2ccncc2C(=O)N1Cc1ccco1
[1]
  growth inhibition (GI): 45%
[2]
  growth inhibition (GI): 0%
[3]
  Activity: 24%
[4]
  growth inhibition (GI): 0%
[5]
  growth inhibition (GI): 8%

## O=C1c2ccncc2C(=O)N1Cc1cccs1
[1]
  growth inhibition (GI): 53%
[2]
  growth inhibition (GI): 4%
[3]
  Activity: 35%
[4]
  growth inhibition (GI): 12%
[5]
  growth inhibition (GI): 24%

## O=C1c2nccnc2C(=O)N1Cc1ccncc1
[1]
  growth inhibition (GI): 36%
[2]
  growth inhibition (GI): 1%
[3]
  Activity: 32%
[4]
  growth inhibition (GI): 0%
[5]
  growth inhibition (GI): 11%

## O=C1c2ccncc2C(=O)N1Cc1ccccn1
[1]
  growth inhibition (GI): 33%
[2]
  growth inhibition (GI): 4%
[3]
  Activity: 27%
[4]
  growth inhibition (GI): 10%
[5]
  growth inhibition (GI): 24%

## O=C1c2nccnc2C(=O)N1Cc1cccs1
[1]
  growth inhibition (GI): 46%
[2]
  growth inhibition (GI): 7%
[3]
  Activity: 31%
[4]
  growth inhibition (GI): 12%
[5]
  growth inhibition (GI): 16%

## O=C1c2nc[nH]c2C(=O)N1Cc1cccs1
[1]
  growth inhibition (GI): 23%
[2]
  growth inhibition (GI): 3%
[3]
  Activity: 32%
[4]
  growth inhibition (GI): 2%
[5]
  growth inhibition (GI): 15%

## O=C1c2nccnc2C(=O)N1Cc1ccco1
[1]
  growth inhibition (GI): 12%
[2]
  growth inhibition (GI): 7%
[3]
  Activity: 0%
[4]
  growth inhibition (GI): 15%
[5]
  growth inhibition (GI): 11%

## O=C1c2ccncc2C(=O)N1Cc1ccncc1
[1]
  growth inhibition (GI): 20%
[2]
  growth inhibition (GI): 12%
[3]
  Activity: 33%
[4]
  growth inhibition (GI): 9%
[5]
  growth inhibition (GI): 12%

## O=c1[nH]cc(F)c(=O)[nH]1 [FLUOROURACIL]
[1]
  growth inhibition (GI): 44%
[2]
  growth inhibition (GI): 25%
[4]
  growth inhibition (GI): 56%
[5]
  growth inhibition (GI): 40%

## CO[C@@]12[C@H](COC(N)=O)C3=C(C(=O)C(C)=C(N)C3=O)N1C[C@@H]1N[C@@H]12 [MITOMYCIN]
[1]
  growth inhibition (GI): 29%
[2]
  growth inhibition (GI): 41%
[4]
  growth inhibition (GI): 85%
[5]
  growth inhibition (GI): 60%

## CCCCC1C(=O)N(c2ccccc2)N(c2ccccc2)C1=O [PHENYLBUTAZONE]
[3]
  Activity: 37%
[6]
  Activity: 17%
[7]
  Activity: 63%
